Laboratory results published in US20230096028A1, “BICYCLIC HETEROCYCLYL COMPOUNDS AND USES THEREOF” (Revolution Medicines, Inc., priority 2019, published 2023).
Like-named read-outs stand apart in the source and are kept apart here.

Legend:
[1] = biological target: T1, SOS1 catalytic domain (residues 564-1049) (Homo sapiens, UniProt Q07889); test: Mode of Action Assay: inhibition of SOS1 nucleotide exchange activity (SOS1 TR-FRET IC50 Assay)
T1 sequence (Q07889 564-1049): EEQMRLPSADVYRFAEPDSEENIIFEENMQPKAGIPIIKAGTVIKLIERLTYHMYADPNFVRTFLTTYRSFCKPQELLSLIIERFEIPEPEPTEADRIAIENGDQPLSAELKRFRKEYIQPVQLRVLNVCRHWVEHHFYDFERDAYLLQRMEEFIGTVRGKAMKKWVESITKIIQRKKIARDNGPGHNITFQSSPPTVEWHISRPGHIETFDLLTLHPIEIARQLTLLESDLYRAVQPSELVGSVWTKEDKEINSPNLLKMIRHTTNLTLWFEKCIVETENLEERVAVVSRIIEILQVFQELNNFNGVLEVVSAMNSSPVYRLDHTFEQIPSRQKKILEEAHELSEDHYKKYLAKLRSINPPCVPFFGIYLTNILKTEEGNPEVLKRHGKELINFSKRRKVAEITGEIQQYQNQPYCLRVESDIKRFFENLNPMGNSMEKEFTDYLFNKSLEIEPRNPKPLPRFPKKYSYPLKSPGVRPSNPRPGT

[2] = biological target: T1, SOS1 catalytic domain (residues 564-1049); test: Potency Assay: binding affinity to SOS1 using Surface Plasmon Resonance (SPR); set-up: SOS1 catalytic domain (residues 564-1049) immobilized on a sensor chip; settings: immobilized SOS1 catalytic domain (residues 564-1049), read-out: SOS1 SPR Equilibrium Kd
Outline: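 Avi-tagged SOS1 catalytic domain captured on streptavidin chip (~6000 RU) in 0.01 M HEPES, 0.15 M NaCl, 0.05% P20. Compound dilution series flowed at 50 μL/min for association, then buffer for dissociation, with double reference subtraction. Kd derived from end-of-association binding response plotted against concentration.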

[3] = test system: PC-9 cells (EGFR Ex19Del); test: Potency Assay: pERK (SOS1 pERK IC50 Assay, AlphaLISA SureFire Ultra p-ERK1/2); format: cell-based; settings: Homo sapiens, read-out: SOS1 pERK IC50
Outline: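 PC-9 (EGFR Ex19Del) cells plated overnight, then treated 1 h at 37° C. with 10-point 3-fold dilutions (top 10 μM final) in duplicate. Lysate pERK1/2 measured by AlphaLISA SureFire Ultra; IC50 from 4-parameter sigmoidal fit.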

[4] = PC-9 cells (EGFR Ex19Del), 1 hour incubation, AlphaLISA p-ERK1/2

Row | Compound | IC50 [1] [µM] | Kd [2] [µM] | IC50 [3, 4] [µM] | IC50 ([3]; PC-9, 1 h) [µM]
1 | C[C@@H](Nc1nc(Cl)nc2c1C[C@@H](N1CCOCC1)CC2)c1cc(N)cc(C(F)(F)F)c1 (single isomer, unassigned) [Example 170] | < 1 | < 0.4 | < 1 | –
2 | C[C@@H](Nc1nc(Cl)nc2c1CN(C(=O)c1ccnnc1)CC2)c1cc(N)cc(C(F)(F)F)c1 [Example 228] | < 1 | < 0.4 | > 1 | –
3 | C[C@@H](Nc1nc(CN)nc2c1CN(C(=O)N1CCOCC1)C2)c1cc(N)cc(C(F)(F)F)c1 [Example 130, N-[(1R)-1-[3-amino-5-(trifluoromethyl)phenyl]ethyl]-2-(aminomethyl)-6-(morpholine-4-carbonyl)-5H,6H,7H-pyrrolo[3,4-d]pyrimidin-4-amine] | < 1 | < 0.4 | > 1 | –
4 | C[C@@H](Nc1nc(CN2CCOCC2)nc2c1CN(C(=O)N1CCOCC1)C2)c1cc(N)cc(C(F)(F)F)c1 [Example 504, N-[(1R)-1-[3-amino-5-(trifluoromethyl)phenyl]ethyl]-2-[(morpholin-4-yl)-methyl]-6-(morpholine-4-carbonyl)-5H,6H,7H-pyrrolo[3,4-d]pyrimidin-4-amine] | < 1 | > 0.4 | > 1 | –
5 | C[C@@H](Nc1nc(Cl)nc2c1CN(C(=O)c1cc(N3CCOCC3)ccn1)C2)c1cc(N)cc(C(F)(F)F)c1 [Example 68] | < 1 | < 0.4 | < 1 | –
6 | C[C@@H](Nc1nc(Cl)nc2c1CN(C(=O)c1ccc(OC(F)F)cn1)C2)c1cc(N)cc(C(F)(F)F)c1 [Example 61] | > 1 | < 0.4 | < 1 | –
7 | C[C@@H](Nc1nc(Cl)nc2c1CN(C(=O)N1CCOc3cccnc31)C2)c1cc(N)cc(C(F)(F)F)c1 [Example 160] | < 1 | < 0.4 | < 1 | –
8 | C[C@@H](Nc1nc(Cl)nc2c1CN(C(=O)c1ccc(N3CCOCC3)cn1)CC2)c1cc(N)cc(C(F)(F)F)c1 [Example 254] | > 1 | > 0.4 | > 1 | –
9 | Cc1nc2c(c(N[C@H](C)c3cc(N)cc(C(F)(F)F)c3)n1)CN(C(=O)OC1CCOCC1)C2 [Example 118, oxan-4-yl 4-{[(1R)-1-[3-amino-5-(trifluoromethyl)phenyl]ethyl]amino}-2-methyl-5H,6H,7H-pyrrolo[3,4-d]pyrimidine-6-carboxylate] | < 1 | > 0.4 | – | < 1
10 | C[C@@H](Nc1nc(Cl)nc2c1CN(C(=O)N1CCNc3ncncc31)C2)c1cc(N)cc(C(F)(F)F)c1 [Example 354] | < 1 | < 0.4 | < 1 | –
11 | C[C@@H](Nc1nc(Cl)nc2c1CN(C(=O)c1ccccn1)CC2)c1cc(N)cc(C(F)(F)F)c1 [Example 247] | > 1 | > 0.4 | > 1 | –
12 | C[C@@H](Nc1nc(Cl)nc2c1CN(S(=O)(=O)N1CCOCC1)CC2)c1cc(N)cc(C(F)(F)F)c1 [Example 29, N-[(1R)-1-[3-amino-5-(trifluoromethyl)phenyl]ethyl]-2-chloro-6-morpholinosulfonyl-7,8-dihydro-5H-pyrido[4,3-d]pyrimidin-4-amine] | < 1 | < 0.4 | < 1 | –
13 | C[C@@H](Nc1nc(Cl)nc2c1CN(C(=O)c1cc(-n3ccnc3)ccn1)C2)c1cc(N)cc(C(F)(F)F)c1 [Example 104] | < 1 | < 0.4 | < 1 | –
14 | COc1ncc(C(=O)N2Cc3nc(Cl)nc(N[C@H](C)c4cc(N)cc(C(F)(F)F)c4)c3C2)cn1 [Example 60] | > 1 | < 0.4 | < 1 | –
15 | Nc1cc(CNc2nc(Cl)nc3c2CN(C(=O)N2CCOCC2)C3)cc(C(F)(F)F)c1 [Example 135, N-{[3-amino-5-(trifluoromethyl)phenyl]methyl}-2-chloro-6-(morpholine-4-carbonyl)-5H,6H,7H-pyrrolo[3,4-d]pyrimidin-4-amine] | > 1 | > 0.4 | > 1 | –
16 | C[C@@H](Nc1nc(Cl)nc2c1CN(S(=O)(=O)C1CC1)C2)c1cc(N)cc(C(F)(F)F)c1 [Example 52] | < 1 | < 0.4 | < 1 | –
17 | COc1ccc2c(c1)OCCN2C(=O)N1Cc2nc(Cl)nc(N[C@H](C)c3cc(N)cc(C(F)(F)F)c3)c2C1 [Example 140] | > 1 | < 0.4 | < 1 | –

The next lines start with results.

Row | IC50 [1] [µM] | Kd [2] [µM] | IC50 [3, 4] [µM] | Compound | IC50 ([3]; PC-9, 1 h) [µM]
18 | < 1 | < 0.4 | < 1 | COC1(C(=O)N2Cc3nc(Cl)nc(N[C@H](C)c4cccc(C(F)F)c4F)c3C2)CCOCC1 [Example 330] | –
19 | < 1 | < 0.4 | > 1 | C[C@@H](Nc1nc(Cl)nc2c1CN(C(=O)C1CN(C)CCO1)C2)c1cccc(C(F)F)c1F (stereo partly drawn) [Example 298] | –
20 | < 1 | < 0.4 | < 1 | C[C@@H](Nc1nc(Cl)nc2c1CN(C(=O)N1CCOCC1)C2)c1cccc(C(F)(F)C2COCCN2C)c1 (stereo partly drawn) [Example 460, (2-chloro-4-(((1R)-1-(3-(difluoro(4-methylmorpholin-3-yl)methyl)phenyl)ethyl)amino)-5,7-dihydro-6H-pyrrolo[3,4-d]pyrimidin-6-yl)(morpholino)methanone] | –
21 | < 1 | < 0.4 | < 1 | COC1(C(=O)N2Cc3nc(Cl)nc(N[C@H](C)c4cccc(C(F)(F)CO)c4)c3C2)COC1 [Example 241] | –
22 | < 1 | < 0.4 | < 1 | COC1(C(=O)N2Cc3nc(Cl)nc(N[C@H](C)c4cccc(C(F)(F)CO)c4)c3C2)CCOCC1 [Example 167, [2-chloro-4-[[(1R)-1-[3-(1,1-difluoro-2-hydroxy-ethyl)phenyl]ethyl]amino]-5,7-dihydropyrrolo[3,4-d]pyrimidin-6-yl]-(4-methoxytetrahydropyran-4-yl)methanone] | –
23 | < 1 | < 0.4 | < 1 | C[C@@H](Nc1nc(Cl)nc2c1CN(C(=O)N1CCC(O)CC1)C2)c1cccc(C(F)F)c1F [Example 395] | –
24 | < 1 | > 0.4 | > 1 | CC(=O)NC1(C(=O)N2Cc3nc(Cl)nc(N[C@H](C)c4cccc(C(F)F)c4F)c3C2)CCCCC1 [Example 332] | –
25 | < 1 | < 0.4 | < 1 | C[C@@H](Nc1nc(Cl)nc2c1CN(C(=O)N1CCNCC1)C2)c1cc(N)cc(C(F)(F)F)c1 [Example 356] | –
26 | < 1 | < 0.4 | < 1 | CC(CC(=O)N1Cc2nc(Cl)nc(N[C@H](C)c3cccc(C(F)F)c3F)c2C1)N1CCNCC1 (stereo partly drawn) [Example 296] | –
27 | < 1 | < 0.4 | < 1 | C[C@@H]1CN(C(=O)N2Cc3nc(Cl)nc(N[C@H](C)c4cccc(C(F)F)c4F)c3C2)C[C@H](C)N1C [Example 397] | –
28 | < 1 | < 0.4 | < 1 | C[C@@H]1CN(C(=O)N2Cc3nc(Cl)nc(N[C@H](C)c4cc(N)cc(C(F)(F)F)c4)c3C2)C[C@H](C)N1 [Example 146] | –
29 | < 1 | < 0.4 | < 1 | C[C@@H](Nc1nc(Cl)nc2c1CN(C(=O)C1CN(C3CCOC3)C1)C2)c1cccc(C(F)F)c1F (stereo partly drawn) [Example 295] | –
30 | < 1 | < 0.4 | < 1 | COC1(C(=O)N2Cc3nc(Cl)nc(N[C@H](C)c4cccc(C(F)F)c4F)c3C2)CNC1 [Example 302] | –
